Reference: ChEMBL document CHEMBL1201862, “PubChem BioAssay data set” (2004)
Activity calls are given as the source filed them.

Key:
Beta-galactosidase = Beta-galactosidase (Escherichia coli, UniProt Q8VNN2); experiment: PubChem AID 485352; type: functional
[1] = molecular target: T1, Type-1 angiotensin II receptor (Homo sapiens, UniProt P30556); experiment: antagonism of angiotensin II type 1 receptor – cell-based, uHTS hits, selectivity assay for APJ receptor antagonist project, dose response (AID 463214); type: functional;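 also: antagonist potency against angiotensin II stimulated AT1 response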
T1 sequence (P30556 whole entry): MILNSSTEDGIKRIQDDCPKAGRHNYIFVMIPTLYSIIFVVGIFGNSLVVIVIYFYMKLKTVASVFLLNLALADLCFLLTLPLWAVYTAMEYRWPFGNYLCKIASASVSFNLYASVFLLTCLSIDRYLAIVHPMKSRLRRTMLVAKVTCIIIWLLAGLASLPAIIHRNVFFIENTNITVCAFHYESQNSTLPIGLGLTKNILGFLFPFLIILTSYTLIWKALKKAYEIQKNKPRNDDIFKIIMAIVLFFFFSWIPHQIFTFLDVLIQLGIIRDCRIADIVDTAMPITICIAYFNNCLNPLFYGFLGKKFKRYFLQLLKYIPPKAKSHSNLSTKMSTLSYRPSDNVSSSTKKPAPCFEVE

[2] = molecular target: Lysine-specific demethylase 4C (Homo sapiens, UniProt Q9H3R0); experiment: inhibition of JMJD2C H3K9me3 demethylation – biochemical, DELFIA europium, cherry-picked samples, dose response (AID 488835); type: functional
Sequence of Lysine-specific demethylase 4C (Q9H3R0 whole entry): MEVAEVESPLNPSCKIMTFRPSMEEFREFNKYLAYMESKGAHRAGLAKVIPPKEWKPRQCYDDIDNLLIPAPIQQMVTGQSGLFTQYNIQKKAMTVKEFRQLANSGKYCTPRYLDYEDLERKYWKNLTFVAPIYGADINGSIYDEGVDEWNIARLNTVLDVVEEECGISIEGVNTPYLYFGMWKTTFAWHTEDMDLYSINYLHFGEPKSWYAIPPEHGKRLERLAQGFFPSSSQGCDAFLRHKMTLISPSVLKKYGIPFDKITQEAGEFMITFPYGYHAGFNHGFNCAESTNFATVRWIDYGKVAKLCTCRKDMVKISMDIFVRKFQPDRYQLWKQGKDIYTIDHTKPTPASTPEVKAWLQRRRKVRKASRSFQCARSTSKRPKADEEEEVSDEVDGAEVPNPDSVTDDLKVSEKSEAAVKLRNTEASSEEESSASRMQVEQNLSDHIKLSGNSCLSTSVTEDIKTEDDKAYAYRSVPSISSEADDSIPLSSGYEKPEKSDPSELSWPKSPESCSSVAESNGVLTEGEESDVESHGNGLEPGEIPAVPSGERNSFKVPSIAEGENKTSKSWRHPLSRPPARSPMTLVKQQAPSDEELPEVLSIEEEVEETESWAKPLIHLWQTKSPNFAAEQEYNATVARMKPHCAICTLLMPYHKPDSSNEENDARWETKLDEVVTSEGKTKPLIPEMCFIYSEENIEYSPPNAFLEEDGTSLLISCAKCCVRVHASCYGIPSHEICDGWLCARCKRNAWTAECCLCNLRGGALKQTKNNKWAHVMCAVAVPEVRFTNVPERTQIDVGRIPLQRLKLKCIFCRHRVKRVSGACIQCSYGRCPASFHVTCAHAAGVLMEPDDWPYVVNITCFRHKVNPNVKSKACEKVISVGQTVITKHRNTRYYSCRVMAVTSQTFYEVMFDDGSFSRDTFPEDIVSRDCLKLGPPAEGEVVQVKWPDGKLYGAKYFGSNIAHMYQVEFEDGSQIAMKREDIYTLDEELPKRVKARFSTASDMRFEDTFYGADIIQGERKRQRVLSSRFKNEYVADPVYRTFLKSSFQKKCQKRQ

[3] = molecular target: T2, Apoptotic protease-activating factor 1 (Homo sapiens, UniProt O14727); type: functional
T2 sequence (O14727 whole entry): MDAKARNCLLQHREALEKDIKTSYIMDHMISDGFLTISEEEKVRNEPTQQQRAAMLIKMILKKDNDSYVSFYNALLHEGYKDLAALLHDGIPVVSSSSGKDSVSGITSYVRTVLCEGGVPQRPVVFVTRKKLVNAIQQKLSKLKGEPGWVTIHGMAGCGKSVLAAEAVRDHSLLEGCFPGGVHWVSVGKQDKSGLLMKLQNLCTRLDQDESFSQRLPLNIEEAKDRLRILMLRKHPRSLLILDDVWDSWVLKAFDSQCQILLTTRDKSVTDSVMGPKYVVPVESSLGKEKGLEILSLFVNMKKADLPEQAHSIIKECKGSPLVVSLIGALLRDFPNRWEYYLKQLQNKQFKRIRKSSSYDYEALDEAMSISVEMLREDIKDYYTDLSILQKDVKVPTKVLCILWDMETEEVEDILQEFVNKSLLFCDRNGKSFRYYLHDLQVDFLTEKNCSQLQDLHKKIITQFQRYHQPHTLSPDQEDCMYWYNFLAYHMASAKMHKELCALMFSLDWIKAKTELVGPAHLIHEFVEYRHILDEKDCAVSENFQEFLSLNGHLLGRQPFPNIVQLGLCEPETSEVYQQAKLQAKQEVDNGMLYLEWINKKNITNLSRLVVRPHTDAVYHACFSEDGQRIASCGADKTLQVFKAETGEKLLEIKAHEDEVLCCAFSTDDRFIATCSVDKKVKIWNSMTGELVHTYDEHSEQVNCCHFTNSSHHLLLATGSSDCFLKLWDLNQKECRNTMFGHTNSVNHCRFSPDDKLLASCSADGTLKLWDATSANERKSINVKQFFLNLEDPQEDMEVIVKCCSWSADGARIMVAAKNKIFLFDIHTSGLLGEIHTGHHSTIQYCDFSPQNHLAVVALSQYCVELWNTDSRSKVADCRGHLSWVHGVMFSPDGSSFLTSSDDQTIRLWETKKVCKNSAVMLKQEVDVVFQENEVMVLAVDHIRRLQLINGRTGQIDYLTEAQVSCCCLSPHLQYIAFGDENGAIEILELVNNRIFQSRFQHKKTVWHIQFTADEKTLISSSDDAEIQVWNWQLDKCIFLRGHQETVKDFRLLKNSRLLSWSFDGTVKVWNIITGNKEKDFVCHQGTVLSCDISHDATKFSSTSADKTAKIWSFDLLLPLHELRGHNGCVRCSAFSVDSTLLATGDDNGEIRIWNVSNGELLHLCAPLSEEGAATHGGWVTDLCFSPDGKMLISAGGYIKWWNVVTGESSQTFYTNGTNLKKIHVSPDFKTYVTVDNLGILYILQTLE

[4] = molecular target: T3, Histone-lysine N-methyltransferase NSD2 (Homo sapiens, UniProt O96028); type: biochemical
T3 sequence (O96028 whole entry): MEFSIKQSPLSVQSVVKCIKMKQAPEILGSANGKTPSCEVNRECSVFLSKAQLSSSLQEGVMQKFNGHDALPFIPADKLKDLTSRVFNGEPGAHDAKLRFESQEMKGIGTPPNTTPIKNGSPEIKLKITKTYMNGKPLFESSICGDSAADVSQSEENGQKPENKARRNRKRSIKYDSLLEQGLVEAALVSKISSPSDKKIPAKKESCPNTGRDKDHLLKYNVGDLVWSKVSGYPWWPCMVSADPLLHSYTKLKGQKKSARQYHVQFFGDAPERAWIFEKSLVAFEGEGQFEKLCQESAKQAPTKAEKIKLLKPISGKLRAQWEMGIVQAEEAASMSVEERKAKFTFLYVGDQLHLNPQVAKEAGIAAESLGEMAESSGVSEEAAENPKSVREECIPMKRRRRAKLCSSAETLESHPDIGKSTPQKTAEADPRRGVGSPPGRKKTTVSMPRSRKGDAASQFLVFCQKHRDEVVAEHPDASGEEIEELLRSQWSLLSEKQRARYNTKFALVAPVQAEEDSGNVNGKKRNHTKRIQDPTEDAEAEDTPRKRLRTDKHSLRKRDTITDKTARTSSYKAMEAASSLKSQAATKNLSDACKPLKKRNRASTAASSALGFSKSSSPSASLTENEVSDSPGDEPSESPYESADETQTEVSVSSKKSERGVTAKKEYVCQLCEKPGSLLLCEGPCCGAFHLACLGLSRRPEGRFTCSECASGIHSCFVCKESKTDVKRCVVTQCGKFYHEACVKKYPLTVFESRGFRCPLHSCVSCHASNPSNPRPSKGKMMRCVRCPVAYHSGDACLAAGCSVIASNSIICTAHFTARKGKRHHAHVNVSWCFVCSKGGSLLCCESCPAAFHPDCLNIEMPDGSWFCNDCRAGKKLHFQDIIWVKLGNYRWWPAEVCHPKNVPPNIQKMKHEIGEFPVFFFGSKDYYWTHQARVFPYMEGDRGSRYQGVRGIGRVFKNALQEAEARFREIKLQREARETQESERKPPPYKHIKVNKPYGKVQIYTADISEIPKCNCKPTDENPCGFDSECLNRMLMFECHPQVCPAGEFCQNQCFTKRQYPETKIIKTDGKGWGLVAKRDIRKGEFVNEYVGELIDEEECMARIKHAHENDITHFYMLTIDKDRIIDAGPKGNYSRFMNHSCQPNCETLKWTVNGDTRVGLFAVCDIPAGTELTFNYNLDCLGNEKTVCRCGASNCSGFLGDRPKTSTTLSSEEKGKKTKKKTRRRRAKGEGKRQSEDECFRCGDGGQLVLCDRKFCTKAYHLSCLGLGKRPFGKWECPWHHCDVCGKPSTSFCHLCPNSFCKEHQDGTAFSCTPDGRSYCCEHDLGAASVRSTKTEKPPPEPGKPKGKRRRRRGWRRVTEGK

[5] = NIH-3T3 fibroblast cytotoxicity, dose response, cytotoxicity control, cell-based, fluorescence, Alamar Blue, secondary assay (AID 2327); type: functional;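 also: NIH-3T3 mouse fibroblasts cultured with fluconazole at 8 µg/mL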
[6] = fluconazole-exposed Candida albicans growth modulators – fluorescence, retest, confirmation (AID 2467); type: functional, cell-based
[7] = molecular target: Eukaryotic translation initiation factor 4E (Mus musculus, UniProt P63073); experiment: blockers of eIF4G binding by eIF4E – biochemical, TR-FRET, dose response (AID 855); type: functional;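 also: potency for disrupting eIF4E binding to eIF4GI seen as loss of FRET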
Sequence of Eukaryotic translation initiation factor 4E (P63073 whole entry): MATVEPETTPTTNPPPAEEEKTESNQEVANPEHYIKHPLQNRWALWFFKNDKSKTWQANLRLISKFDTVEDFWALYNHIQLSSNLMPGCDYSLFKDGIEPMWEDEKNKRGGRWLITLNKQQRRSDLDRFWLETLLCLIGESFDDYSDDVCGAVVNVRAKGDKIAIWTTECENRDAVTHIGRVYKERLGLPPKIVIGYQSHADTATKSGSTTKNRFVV

HEK293 [8] = experiment: EBV LMP1 TES2 canonical NF-kB signalling blockers – cell-based, HEK293, luciferase, cherry-pick, dose response (AID 588343); type: functional; details: Homo sapiens
[9] = molecular target: Latent membrane protein 1 (Human herpesvirus 4 (strain B95-8), UniProt P03230); experiment: LMP1 TES1 pathway selectivity over dsRED control – imaging, HEK293T, dual-color eGFP/dsRED, cherry-picks, selectivity assay for LMP1 NF-kB inhibitor project, dose response (AID 588398); type: functional, cell-based
Sequence of Latent membrane protein 1 (P03230 whole entry): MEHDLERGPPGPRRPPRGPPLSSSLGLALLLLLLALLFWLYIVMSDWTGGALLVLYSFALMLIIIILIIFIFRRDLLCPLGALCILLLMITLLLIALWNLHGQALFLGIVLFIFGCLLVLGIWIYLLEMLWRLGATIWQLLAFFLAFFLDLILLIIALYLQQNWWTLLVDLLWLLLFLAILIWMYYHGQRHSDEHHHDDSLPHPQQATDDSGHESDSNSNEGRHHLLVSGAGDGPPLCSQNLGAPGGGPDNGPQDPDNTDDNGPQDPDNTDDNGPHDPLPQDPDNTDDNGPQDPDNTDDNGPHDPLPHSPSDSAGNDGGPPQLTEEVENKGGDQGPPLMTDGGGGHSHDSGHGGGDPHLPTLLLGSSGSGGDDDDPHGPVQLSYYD

HEK293 [10] = experiment: HEK293T cell viability loss, resazurin readout – resazurin fluorescence, cytotoxicity control for NF-kB activator project, SAR follow-up (AID 493251); type: functional, cell-based; details: Homo sapiens
Jurkat = experiment: SAR Analysis of small molecule inhibitors of T-cell specific antigen receptor-induced NF-kB activation in a Jurkat cell line using a luminescence assay - Set 2. [Related pubchem assays (depositor defined):AID435003, AID435012, AID465]; type: functional, cell-based; details: Homo sapiens
HEK293 [11] = experiment: SAR Analysis of small molecule inhibitors of T-cell specific antigen receptor-induced NF-kB activation in a HEK-293T cell line using a luminescence assay - Set 2. [Related pubchem assays (depositor defined):AID435003, AID435012, AID489026]; type: functional, cell-based; details: Homo sapiens
[12] = reduction of Shn3 3'UTR-driven luciferase in osteoblasts – cell-based, Clone20 osteoblasts, firefly luciferase, cherry-picked, dose response (AID 624132); type: functional;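 also: firefly luciferase luminescence from reporter carrying the Shn3 3'UTR in osteoblasts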
[13] = loss of viability in HepG2 cells – cell-based, CellTiter-Glo, cherry-picked, cytotoxicity control for Shn3 inhibitor project, dose response (AID 624134); type: functional
[14] = non-specific 3'UTR reporter inhibition in Clone20-Shn3RL – cell-based, Renilla luciferase, cherry-picked, counter-screen for Shn3 inhibitor project, dose response (AID 624133); type: functional
[15] = molecular target: T4, Endoribonuclease toxin MazF (Escherichia coli K-12, UniProt P0AE70); experiment: MazEF toxin-antitoxin RNase activation – biochemical, fluorescence, single-stranded RNA substrate, SAR follow-up (AID 588603); type: functional
T4 sequence (P0AE70 whole entry): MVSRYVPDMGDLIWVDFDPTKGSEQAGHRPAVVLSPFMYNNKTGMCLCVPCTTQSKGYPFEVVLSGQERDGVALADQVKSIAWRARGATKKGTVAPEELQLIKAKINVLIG

[16] = molecular target: T4, Endoribonuclease toxin MazF; experiment: activation of MazEF endoribonuclease cleavage – biochemical, fluorescence, single-stranded RNA substrate, uHTS hits, dose response (AID 588481); type: functional
MEF = experiment: SAR analysis of small molecule cytotoxicity of MazEF TA System activators in embryonic fibroblast (MEF) cells. [Related pubchem assays (depositor defined):AID504720, AID504743]; type: functional; details: Mus musculus
[17] = molecular target: T4, Endoribonuclease toxin MazF; experiment: SAR analysis of small molecule activators of the MazEF TA System via a fluorescence-based single-stranded RNase assay counterscreen. [Related pubchem assays (depositor defined):AID504720, AID504743]; type: functional
[18] = molecular target: T4, Endoribonuclease toxin MazF; experiment: substrate-only fluorescence increase artefacts – biochemical, single-stranded RNase substrate, counter-screen for MazEF activator project, dose response (AID 588502); type: functional
[19] = molecular target: T5, Microphthalmia-associated transcription factor (Homo sapiens, UniProt O75030); experiment: reducers of TRPM1 reporter luminescence, concentration series – cell-based, SK-MEL-5, cherry-picked, set 3, MITF inhibitor project, dose response (AID 493073); type: functional;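 also: SK-MEL-5 melanoma cells with luciferase driven by the MITF target TRPM1 promoter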
T5 sequence (O75030 whole entry): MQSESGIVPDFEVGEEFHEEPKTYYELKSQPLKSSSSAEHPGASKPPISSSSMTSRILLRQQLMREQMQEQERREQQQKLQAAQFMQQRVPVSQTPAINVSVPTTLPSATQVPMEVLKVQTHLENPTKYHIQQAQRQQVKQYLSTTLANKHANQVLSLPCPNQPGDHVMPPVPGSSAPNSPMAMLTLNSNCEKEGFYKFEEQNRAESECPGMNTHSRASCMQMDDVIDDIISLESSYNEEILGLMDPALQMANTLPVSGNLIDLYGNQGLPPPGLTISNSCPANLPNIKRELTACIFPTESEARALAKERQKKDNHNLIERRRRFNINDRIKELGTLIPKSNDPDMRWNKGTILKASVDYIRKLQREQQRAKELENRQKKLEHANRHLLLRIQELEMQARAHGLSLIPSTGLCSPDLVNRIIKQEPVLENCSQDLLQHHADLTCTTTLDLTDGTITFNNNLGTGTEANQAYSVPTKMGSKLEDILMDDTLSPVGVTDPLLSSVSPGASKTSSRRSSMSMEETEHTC

Sequence of Beta-galactosidase (Q8VNN2 whole entry): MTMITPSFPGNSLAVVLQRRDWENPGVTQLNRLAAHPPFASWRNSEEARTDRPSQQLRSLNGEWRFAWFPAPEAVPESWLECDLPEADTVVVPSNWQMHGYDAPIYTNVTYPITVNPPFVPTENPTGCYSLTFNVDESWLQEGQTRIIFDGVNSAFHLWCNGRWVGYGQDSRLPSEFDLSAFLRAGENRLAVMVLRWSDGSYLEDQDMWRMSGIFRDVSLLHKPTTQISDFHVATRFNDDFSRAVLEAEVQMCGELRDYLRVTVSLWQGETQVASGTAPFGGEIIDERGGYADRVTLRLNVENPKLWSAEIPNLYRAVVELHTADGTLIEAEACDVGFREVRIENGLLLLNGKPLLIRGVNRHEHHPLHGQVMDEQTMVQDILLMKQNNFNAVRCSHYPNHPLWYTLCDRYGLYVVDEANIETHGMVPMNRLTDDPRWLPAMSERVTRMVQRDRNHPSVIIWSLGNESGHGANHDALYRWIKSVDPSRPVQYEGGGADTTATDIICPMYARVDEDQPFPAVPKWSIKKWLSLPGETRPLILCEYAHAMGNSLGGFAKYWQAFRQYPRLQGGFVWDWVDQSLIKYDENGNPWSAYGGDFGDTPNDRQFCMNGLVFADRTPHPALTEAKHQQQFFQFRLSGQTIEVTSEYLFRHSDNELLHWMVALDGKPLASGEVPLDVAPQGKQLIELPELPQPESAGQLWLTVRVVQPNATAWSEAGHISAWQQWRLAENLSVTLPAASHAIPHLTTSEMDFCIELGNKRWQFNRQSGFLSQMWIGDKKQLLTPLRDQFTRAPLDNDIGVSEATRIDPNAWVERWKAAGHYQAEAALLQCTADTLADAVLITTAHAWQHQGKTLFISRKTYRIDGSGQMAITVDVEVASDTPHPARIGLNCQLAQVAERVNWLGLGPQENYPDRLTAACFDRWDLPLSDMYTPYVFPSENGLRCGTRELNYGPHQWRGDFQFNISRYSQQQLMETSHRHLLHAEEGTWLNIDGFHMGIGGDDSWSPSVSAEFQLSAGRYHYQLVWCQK

| Structure (SMILES) | IC50 [3] | AC50 (HEK293 [8]) | AC50 [9] | EC50 [15] | EC50 [16] | CC50 (MEF) | EC50 [17] | EC50 [18] | also measured |
| --- | --- | --- | --- | --- | --- | --- | --- | --- | --- |
| C=CCN(CC=C)Cc1c(O)ccc2c1oc(=O)c1ccccc12 | 60.3 µM (active) | – | – | – | – | – | – | – | EC50 (Beta-galactosidase): > 40 µM (inactive); IC50 [1]: > 40 µM (not active); AC50 [2]: 0.48 µM (active); AC50 [4]: 4.02 µM (active) |
| Cn1cccc1-c1cc(C(=O)N2CCc3c([nH]c4ccccc34)C2c2ccccn2)[nH]n1 (stereo not given) | – | 25.8 µM (active) | 21.6 µM (active) | – | – | – | – | – | EC50 [5]: 21.3 µM (active); EC50 [6]: 2.76 µM (active); IC50 [7]: 50 µM (inactive) |
| CCCCC(=O)NC(c1ccc(OC)cc1)c1ccc2cccnc2c1O (stereo not given) | – | 15.8 µM (active) | 11.6 µM (active) | – | – | – | – | – | IC50 (HEK293 [10]): 21.7 µM (inactive); IC50 (Jurkat): 3.22 µM (active); IC50 (HEK293 [11]): 5.25 µM (active); AC50 [12]: 2.28 µM (active); AC50 [13]: 5.14 µM (active); AC50 [14]: 8.8 µM (active) |
| N#Cc1cc2ccccc2nc1SCC(=O)Nc1ccccc1N1CCOCC1 | – | – | – | 5.15 µM (active) | 17.5 µM (active) | > 99 µM (inactive) | > 99 µM (inactive) | > 99 µM (inactive) | – |
| NC(=O)C1CCN(C2=C(NS(=O)(=O)c3ccc(Br)cc3)C(=O)c3ccccc3C2=O)CC1 | 16.9 µM (active) | – | – | – | – | – | – | – | AC50 [19]: 11.9 µM (active) |
| COc1cc(C(=O)Oc2cc(N)n(S(=O)(=O)c3ccc(F)cc3)n2)cc(OC)c1OC | – | – | – | 3.48 µM (active) | 14.8 µM (active) | 85.3 µM (active) | > 99 µM (inactive) | > 99 µM (inactive) | – |
